Counter-ions that a name gives are not always drawn.

One data set has as its system diabetic rats. The experiment in a line: Ocular permeability in STZ diabetic rats (leakage of fluorescein into the vitreous). It counts as in vivo, rat. Conditions: daily from 2 weeks after STZ, mean ± S.E.M., 10 rats. The method, then: Diabetes in rats was induced with an intraperitoneal (i.p.) injection of 65 mg/ml/kg of streptozotocin (STZ) in 2 mmol/l citrate buffer (pH 4.5) after a 20-h fast. At the same time control rats were injected with an equal volume of 2 mmol/l citrate buffer. Plasma glucose level was checked by a calorimetric method. At day 3 of STZ treatment, the rats were diagnosed with diabetes showing a plasma glucose level of 350 mg/dl.
The treatment of Compound A was given daily from 2 weeks after STZ treatment for 2 weeks. At 24 hrs after final treatment of Compound A, the vascular permeability in oculus was investigated based on the leakage of dye into the vitreous 30 min after intravenous injection of fluorescein solution (40 mg/ml/kg). Permeability was expressed as vitreous/plasma ratio of fluorescein concentration measured by a fluorophotometer. At the same time, the plasma SSAO activity was checked by the radiochemical-enzyme assay using ^14C-benzylamine (2×10^−5 mol/l final concentration) as substrate.
In the same manner as in Example 2, the effect of various VAP-1 inhibitors on ocular permeability was determined in diabetic rats.

Broadly, the melting point is the temperature, or range, at which the solid turns liquid. Turning to `CC(=O)Nc1nc(CCc2ccc(C(=N)N)cc2)cs1.Cl`, the melting point lay in the range of 229.5 to 231 °C.

`CC(=O)Nc1nc(CCc2ccc(CC(=N)N)cc2)cs1` (as salt: hydrochloride) [Production Example 59, N-(4-{2-[4-(2-amino-2-iminoethyl)phenyl]ethyl}-1,3-thiazol-2-yl)acetamide] registered a melting point of 190.5 to 192 °C.

With `CC(=O)Nc1nc(CCc2ccc(CON)cc2)cs1` [Compound B, N-[4-(2-{4-[(aminooxy)methyl]phenyl}ethyl)-1,3-thiazol-2-yl]acetamide], the melting point is 130 to 130.5 °C. Also, the “Vitreous/Plasma Ratio of Fluorescein Concentration” value in the data set on diabetic rats (0.1 mg/kg, s.c.) is reported as 7.54 ± 0.80 ×10^−3. For the same molecule, in the data set with diabetic rats (0.003%, ocular instillation, u.i.d.), the “Vitreous/Plasma Ratio of Fluorescein Concentration” value was 9.86 ± 1.65 ×10^−3.

The molecule `CC(=O)Nc1nc(CCc2ccc(NC3=NCCS3)cc2)cs1` [Production Example 2, N-(4-(2-(4-(4,5-dihydro-1,3-thiazol-2-ylamino)phenyl)ethyl)-1,3-thiazol-2-yl)acetamide] returned a melting point of 218 to 219.5 °C.

For the molecule `C=NOCc1ccc(CCc2csc(NC(C)=O)n2)cc1` [Production Example 17, N-{4-[2-(4-{[(methyleneamino)oxy]methyl}phenyl)ethyl]-1,3-thiazol-2-yl}acetamide], the melting point is 136.5 to 137 °C.

`CC(=O)Nc1nc(CCc2ccc(NC(=N)N)cc2)c(Cc2ccc(S(C)(=O)=O)cc2)s1` [Production Example 48, N-{4-[2-(4-{[amino(imino)methyl]amino}phenyl)ethyl]-5-[4-(methylsulfonyl)benzyl]-1,3-thiazol-2-yl}acetamide]: the melting point lay within 228 to 229.5 °C.

The molecule `CC(=O)Nc1nc(CCc2ccc(NC3=NCCN3)cc2)c(Cc2ccc(S(C)(=O)=O)cc2)s1` [Production Example 55, N-{4-{2-[4-(4,5-dihydro-1H-imidazol-2-ylamino)phenyl]ethyl}-5-[4-(methylsulfonyl)benzyl]-1,3-thiazol-2-yl}acetamide] returned a melting point of 139 to 140 °C.

For the molecule `CC(=N)Nc1ccc(CCc2nc(NC(C)=O)sc2Cc2ccc(S(C)(=O)=O)cc2)cc1` [Production Example 56, N-{4-{2-[4-(ethanimidoylamino)phenyl]ethyl}-5-[4-(methylsulfonyl)benzyl]-1,3-thiazol-2-yl}acetamide], the melting point was in the range of 81.5 to 83 °C.

The molecule `CC(=O)Nc1nc(CCc2ccc(C(=O)NC(=N)N)cc2)c(Cc2ccc(S(C)(=O)=O)cc2)s1` [Production Example 106, 4-(2-{2-(acetylamino)-5-[4-(methylsulfonyl)benzyl]-1,3-thiazol-4-yl}ethyl)-N-[amino(imino)methyl]benzamide] yielded a melting point of 108 to 109.5 °C.

These data come from US20080119462A1, “METHOD FOR TREATING VASCULAR HYPERPERMEABLE DISEASE” (Sucampo AG, priority 2003, published 2008).
